The record followed here is ChEMBL document CHEMBL1158337, “Synthesis and bioassay of a new class of heterocycles pyrrolyl oxadiazoles/thiadiazoles/triazoles” (Eur J Med Chem, 2009).

Each structure is given as a SMILES string. In brackets after ≈: the same amount, converted by molar mass.

Series [1] has as its system Curvularia lunata. The series can be described thus: Antifungal activity against Curvularia lunata at 200 ug/disk after 48 hrs by agar disc-diffusion method. The settings on record: read-out: IZ. It is filed as functional. (Agar diffusion results depend on both activity and mobility in agar.)
Series [2] concerns Aspergillus niger. Put plainly: Antifungal activity against Aspergillus niger at 100 ug/disk after 48 hrs by agar disc-diffusion method. It is filed as functional. The settings on record: read-out: IZ.
Series [3] concerns Fusarium solani. Put plainly: Antifungal activity against Fusarium solani at 200 ug/disk after 48 hrs by agar disc-diffusion method. It is filed as functional. As to conditions: read-out: IZ.
Series [4] concerns Staphylococcus aureus. Put plainly: Antibacterial activity against Staphylococcus aureus after 24 hrs by microdilution susceptibility method. It is filed as functional. Background: Broth dilution looks for growth in wells or tubes with falling amounts of substance.
Series [5] has as its system Klebsiella pneumoniae. Put plainly: Antibacterial activity against Klebsiella pneumoniae at 100 ug/disk after 24 hrs by agar disc-diffusion method. The settings on record: read-out: IZ. Format: functional.
Series [6] has as its system Fusarium solani. The series can be described thus: Antifungal activity against Fusarium solani after 48 hrs by microdilution susceptibility method. Format: functional.
The test system of series [7] is Escherichia coli. Put plainly: Antibacterial activity against Escherichia coli at 200 ug/disk after 24 hrs by agar disc-diffusion method. It is filed as functional. As to conditions: read-out: IZ.
Series [8] relates to Aspergillus niger. Put plainly: Antifungal activity against Aspergillus niger at 200 ug/disk after 48 hrs by agar disc-diffusion method. Format: functional. As to conditions: read-out: IZ.
The test system of series [9] is Escherichia coli. Put plainly: Antibacterial activity against Escherichia coli at 100 ug/disk after 24 hrs by agar disc-diffusion method. Format: functional. The settings on record: read-out: IZ.
For series [10], the system named is Klebsiella pneumoniae. The series can be described thus: Antibacterial activity against Klebsiella pneumoniae at 200 ug/disk after 24 hrs by agar disc-diffusion method. It is filed as functional. The settings on record: read-out: IZ.
Series [11] concerns Bacillus subtilis. Put plainly: Antibacterial activity against Bacillus subtilis at 200 ug/disk after 24 hrs by agar disc-diffusion method. Format: functional. The settings on record: read-out: IZ.
Series [12] concerns Bacillus subtilis. The series can be described thus: Antibacterial activity against Bacillus subtilis after 24 hrs by microdilution susceptibility method. It is filed as functional.
The nature of series [13]: Cytotoxicity against mink CCL64 cells upto 100 uM after 72 hrs by MTT assay in presence of 0.2% fetal bovine serum. It is filed as cell-based. The settings on record: neovison vison, ccl64, 72 h. In general terms: Formazan colour is commonly taken as a measure of viable cells.
In series [14] the test system is Escherichia coli. Put plainly: Antibacterial activity against Escherichia coli after 24 hrs by microdilution susceptibility method. It is filed as functional.
Series [15] deals with Staphylococcus aureus. The series can be described thus: Antibacterial activity against Staphylococcus aureus at 100 ug/disk after 24 hrs by agar disc-diffusion method. As to conditions: read-out: IZ. It is filed as functional.
The test system of series [16] is Aspergillus niger. Put plainly: Antifungal activity against Aspergillus niger after 48 hrs by microdilution susceptibility method. Format: functional.
The subject of series [17] is Bacillus subtilis. Put plainly: Antibacterial activity against Bacillus subtilis at 100 ug/disk after 24 hrs by agar disc-diffusion method. It is filed as functional. The settings on record: read-out: IZ.
Series [18] deals with Curvularia lunata. Put plainly: Antifungal activity against Curvularia lunata after 48 hrs by microdilution susceptibility method. It is filed as functional.
Series [19] deals with Staphylococcus aureus. The series can be described thus: Antibacterial activity against Staphylococcus aureus at 200 ug/disk after 24 hrs by agar disc-diffusion method. Format: functional. The settings on record: read-out: IZ.
For the next series, the system named is A549. The series can be described thus: Cytotoxicity against human A549 cells upto 100 uM after 72 hrs by MTT assay in presence of 10% fetal bovine serum. Format: functional, cell-based.
Series [20] concerns Curvularia lunata. Put plainly: Antifungal activity against Curvularia lunata at 100 ug/disk after 48 hrs by agar disc-diffusion method. Format: functional. The settings on record: read-out: IZ.
In series [21] the test system is Fusarium solani. Put plainly: Antifungal activity against Fusarium solani at 100 ug/disk after 48 hrs by agar disc-diffusion method. It is filed as functional. The settings on record: read-out: IZ.
Series [22] relates to Klebsiella pneumoniae. Put plainly: Antibacterial activity against Klebsiella pneumoniae after […] by microdilution susceptibility method. It is filed as functional.

As to `Nn1c(S)nnc1CS(=O)(=O)c1c[nH]cc1S(=O)(=O)c1ccccc1`, the zone of inhibition at 200 µg/disc turned out to be 36 mm with Curvularia lunata [1]; 36 mm in the series with Fusarium solani [3]; 26 mm in the series with Escherichia coli [7]; 34 mm with Aspergillus niger [8]; 22 mm with Klebsiella pneumoniae [10]; 35 mm with Bacillus subtilis [11]. Further, the zone of inhibition at 200 µg/disc in the series on Staphylococcus aureus [19] worked out at 32 mm. In addition, the zone of inhibition at 100 µg/disc with Aspergillus niger [2] is 30 mm; in the series with Klebsiella pneumoniae [5], 21 mm; in the series on Escherichia coli [9] it was 22 mm; in the series with Staphylococcus aureus [15], 28 mm; with Bacillus subtilis [17], 31 mm; with Curvularia lunata [20] it was 34 mm. Further, the zone of inhibition at 100 µg/disc in the series with Fusarium solani [21] turned out to be 33 mm. The MIC (as a rule, the smallest concentration in the dilution series that meets the test's criterion for growth inhibition) was 25 µg/mL (≈ 62.6 µM) in the series on Staphylococcus aureus [4]; 100 µg/mL (≈ 250 µM) against Fusarium solani [6]; 100 µg/mL (≈ 250 µM) in the series with Bacillus subtilis [12]; 100 µg/mL (≈ 250 µM) against Escherichia coli [14]; 100 µg/mL (≈ 250 µM) in the series on Aspergillus niger [16]; 100 µg/mL (≈ 250 µM) in the series with Curvularia lunata [18]. Moreover, it took 100 µg/mL (≈ 250 µM) to inhibit growth against Klebsiella pneumoniae [22] (MIC). In addition, the Activity result in [13] is “Non-toxic”; in the series with A549 it was “Not toxic”.
